The NIST ThermoML archive (doi:10.1021/je8009978)
± gives the expanded uncertainty stated by the source.

Tests used:
[1] = Liquid
[2] = refractive index (Na D-line) (dimensionless); details: 298.15 K; 101.33 kPa; Liquid; Standard Abbe refractometry

mass density ([1]; 298.15 K, 101.33 kPa, Vibrating tube method): 797.6 ± 0.3 kg/m3
Normal boiling temperature ([1]; Closed cell (Static) method): 107.83 ± 0.2 °C
refractive index [2]: 1.3939 ± 0.0004
Structure (SMILES): CC(C)CO [2-methyl-1-propanol]
